From PMC6175577, “BRCT domains of the DNA damage checkpoint proteins TOPBP1/Rad4 display distinct specificities for phosphopeptide ligands” (eLife, 2018)
Changes are numbered by the printed parent chain. Read-outs that look alike come from different tables or passages of the source. One block for each compound: values may come before it. Where a SMILES comes first, the peptide text is derived from it. [ ]: non-standard residue; d: D form. The star is where a group is joined. 5FAM = O=C1OC2(c3ccc(O)cc3Oc3cc(O)ccc32)c2ccc(C(=O)*)cc21; pT = C[C@@H](OP(=O)(O)O)[C@H](N)C(=O)O; pS = N[C@@H](COP(=O)(O)O)C(=O)O

Legend:
[1] = target: T1, TOPBP1-BRCT4,5 (Homo sapiens, UniProt Q92547); experiment: Fluorescence polarisation titration, TOPBP1-BRCT4,5; format: binding
T1 construct: made in house; host or cells: E. coli BL21(DE3)
T1 sequence (Q92547 549-746 limits assumed): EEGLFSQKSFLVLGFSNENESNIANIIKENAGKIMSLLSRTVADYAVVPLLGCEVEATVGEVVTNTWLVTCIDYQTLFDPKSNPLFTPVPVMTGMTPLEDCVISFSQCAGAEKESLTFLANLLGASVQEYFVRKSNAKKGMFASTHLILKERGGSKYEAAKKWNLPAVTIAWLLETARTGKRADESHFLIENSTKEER
Experimental: (§1) Fluorescein-labelled peptides (Peptide Protein Research Ltd, Fareham, UK) at a concentration of 200 nM, were incubated at room temperature with increasing concentrations of recombinant protein in 25 mM HEPES pH 7.5, 150 mM NaCl, 1 mM EDTA, 0.25 mM TCEP, 0.02% (v/v) Tween-20. Four parallel replicates of each titration were dispensed into a black 96-well polypropylene plate (VWR, Lutterworth, UK) for measurement. Fluorescence polarisation was measured in a CLARIOstar multimode microplate reader (BMG Labtech, Aylesbury, UK). Binding curves represent the mean of 4 independent experiments, with error bars indicating one standard deviation. All data were fitted by non-linear regression, to a one site-specific binding model in Prism seven for Mac OS X (v 7.0d, GraphPad Software) in order to calculate the reported dissociation constants (Kd). Low-affinity non-specific responses for which a binding curve could not be determined are marked as ND.

[2] = target: T2, TOPBP1-BRCT7,8 (Homo sapiens, UniProt Q92547); experiment: Fluorescence polarisation titration, TOPBP1-BRCT7,8; format: binding
T2 construct: made in house; host or cells: E. coli BL21(DE3)
T2 sequence (Q92547 1264-1493 limits assumed): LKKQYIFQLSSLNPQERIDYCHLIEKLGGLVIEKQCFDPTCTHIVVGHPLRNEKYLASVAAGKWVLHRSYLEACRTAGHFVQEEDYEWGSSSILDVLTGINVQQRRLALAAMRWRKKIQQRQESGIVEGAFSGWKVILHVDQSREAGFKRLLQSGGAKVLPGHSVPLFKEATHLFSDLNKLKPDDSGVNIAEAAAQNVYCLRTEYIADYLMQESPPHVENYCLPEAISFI
Experimental: as §1

[3] = target: T3, SpNbs1 (Schizosaccharomyces pombe, UniProt O43070); experiment: Fluorescence polarisation titration, SpNbs1; format: binding, S. pombe; conditions: FP, fluorescein-peptide 200 nM, HEPES pH 7.5, room temperature, one-site fit, 4 replicates
T3 construct: made in house; host or cells: E. coli BL21(DE3)
T3 sequence (O43070 1-613): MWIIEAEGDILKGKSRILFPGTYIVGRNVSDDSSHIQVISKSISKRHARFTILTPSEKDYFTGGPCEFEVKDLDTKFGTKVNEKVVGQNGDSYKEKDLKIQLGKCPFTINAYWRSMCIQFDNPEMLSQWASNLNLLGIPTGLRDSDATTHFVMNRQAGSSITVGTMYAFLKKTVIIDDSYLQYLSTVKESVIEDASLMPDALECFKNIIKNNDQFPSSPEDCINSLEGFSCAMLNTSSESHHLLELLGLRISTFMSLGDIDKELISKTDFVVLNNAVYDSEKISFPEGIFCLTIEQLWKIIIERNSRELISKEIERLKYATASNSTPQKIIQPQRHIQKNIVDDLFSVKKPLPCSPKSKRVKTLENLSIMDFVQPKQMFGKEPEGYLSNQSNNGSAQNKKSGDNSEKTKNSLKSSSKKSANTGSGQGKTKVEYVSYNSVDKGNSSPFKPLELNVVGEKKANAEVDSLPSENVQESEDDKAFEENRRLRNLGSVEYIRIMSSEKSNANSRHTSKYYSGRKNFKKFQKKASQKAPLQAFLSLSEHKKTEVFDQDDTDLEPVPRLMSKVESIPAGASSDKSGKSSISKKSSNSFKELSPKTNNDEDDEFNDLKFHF
Experimental: as §1

[4] = target: T4, Rad4-BRCT1,2 WT (Schizosaccharomyces pombe, UniProt P32372); experiment: Fluorescence polarisation titration, Rad4-BRCT1,2 wild-type; conditions: FP, fluorescein-peptide 200 nM, HEPES pH 7.5, room temperature, one-site fit, 4 replicates; ND = low-affinity non-specific response, no binding curve
T4 construct: made in house; host or cells: E. coli BL21(DE3)
T4 sequence (P32372 1-186 limits assumed): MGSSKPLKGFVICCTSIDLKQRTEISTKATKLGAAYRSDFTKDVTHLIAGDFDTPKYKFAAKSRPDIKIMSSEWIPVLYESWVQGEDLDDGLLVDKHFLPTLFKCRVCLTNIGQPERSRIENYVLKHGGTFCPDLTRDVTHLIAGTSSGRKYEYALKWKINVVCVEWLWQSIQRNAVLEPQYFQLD
Experimental: as §1

[5] = target: T5, Rad4-BRCT3,4 (Schizosaccharomyces pombe, UniProt P32372); experiment: Fluorescence polarisation titration, Rad4-BRCT3,4; conditions: FP, fluorescein-peptide 200 nM, HEPES pH 7.5, room temperature; ND = low-affinity non-specific response, no binding curve
T5 construct: made in house; host or cells: E. coli BL21(DE3)
T5 sequence (P32372 291-494 limits assumed): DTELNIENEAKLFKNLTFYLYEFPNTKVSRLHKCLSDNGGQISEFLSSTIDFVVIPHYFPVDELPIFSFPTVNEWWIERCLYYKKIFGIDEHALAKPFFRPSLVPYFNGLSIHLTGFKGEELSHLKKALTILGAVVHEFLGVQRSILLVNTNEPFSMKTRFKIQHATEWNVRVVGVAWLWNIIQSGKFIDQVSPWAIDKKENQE
Experimental: as §1

[6] = target: T6, Rad4-BRCT1,2 K56E (Schizosaccharomyces pombe, UniProt P32372, K56E); experiment: Fluorescence polarisation titration, Rad4-BRCT1,2 K56E (BRCT1 mutant); format: binding; conditions: FP, fluorescein-peptide 200 nM, HEPES pH 7.5, room temperature, one-site fit, 4 replicates
T6 construct: made in house; host or cells: E. coli BL21(DE3)
T6 sequence (P32372 1-186 K56E limits assumed): T4 sequence (P32372 1-186 limits assumed) with K56E
Experimental: as §1

[7] = target: T7, Rad4-BRCT1,2 K151E (Schizosaccharomyces pombe, UniProt P32372, K151E); experiment: Fluorescence polarisation titration, Rad4-BRCT1,2 K151E (BRCT2 mutant); conditions: FP, fluorescein-peptide 200 nM, HEPES pH 7.5, room temperature; ND = low-affinity non-specific response, no binding curve
T7 construct: made in house; host or cells: E. coli BL21(DE3)
T7 sequence (P32372 1-186 K151E limits assumed): T4 sequence (P32372 1-186 limits assumed) with K151E
Experimental: as §1

[8] = target: T8, TOPBP1-BRCT0,1,2 WT (Homo sapiens, UniProt Q92547); experiment: Fluorescence polarisation titration, TOPBP1-BRCT0,1,2 wild-type; format: binding
T8 construct: made in house; host or cells: E. coli BL21(DE3)
T8 sequence (Q92547 1-290 limits assumed): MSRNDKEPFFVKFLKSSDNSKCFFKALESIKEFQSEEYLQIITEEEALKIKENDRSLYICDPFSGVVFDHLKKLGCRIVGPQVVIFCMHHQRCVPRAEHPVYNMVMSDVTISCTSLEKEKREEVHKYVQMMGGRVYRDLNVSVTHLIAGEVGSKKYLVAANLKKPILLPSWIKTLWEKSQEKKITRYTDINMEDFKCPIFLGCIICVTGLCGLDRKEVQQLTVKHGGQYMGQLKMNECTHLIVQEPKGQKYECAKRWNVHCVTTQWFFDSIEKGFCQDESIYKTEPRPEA
Experimental: as §1

[9] = target: T9, TOPBP1-BRCT0,1,2 K155E (Homo sapiens, UniProt Q92547, K155E); experiment: Fluorescence polarisation titration, TOPBP1-BRCT0,1,2 K155E (BRCT1 mutant); format: binding
T9 construct: made in house; host or cells: E. coli BL21(DE3)
T9 sequence (Q92547 1-290 K155E limits assumed): as the sequence (Q92547 1-290 limits assumed) above, with K155E counted along it
Experimental: as §1

[10] = target: T10, TOPBP1-BRCT0,1,2 K250E (Homo sapiens, UniProt Q92547, K250E); experiment: Fluorescence polarisation titration, TOPBP1-BRCT0,1,2 K250E (BRCT2 mutant); format: binding
T10 construct: made in house; host or cells: E. coli BL21(DE3)
T10 sequence (Q92547 1-290 K250E limits assumed): as the sequence (Q92547 1-290 limits assumed) above, with K250E counted along it
Experimental: as §1

[11] = FP, fluorescein-peptide 200 nM, HEPES pH 7.5, room temperature, one-site fit, 4 replicates
[12] = FP, fluorescein-peptide 200 nM, HEPES pH 7.5, room temperature, one-site fit, 4 replicates, read-out: Kd
[13] = FP, fluorescein-peptide 200 nM, HEPES pH 7.5, room temperature, one-site fit, 4 replicates, ND = low-affinity non-specific response, no binding curve

Compound: CC[C@H](C)[C@H](NC(=O)[C@H](CCC(=O)O)NC(=O)[C@H](CCC(=O)O)NC(=O)[C@@H]1CCCN1C(=O)[C@H](COP(=O)(O)O)NC(=O)[C@@H]1CCCN1C(=O)[C@@H]1CCCN1C(=O)[C@@H](NC(=O)[C@H](Cc1ccccc1)NC(=O)[C@H](CC(=O)O)NC(=O)[C@@H](NC(=O)[C@H](CC(=O)O)NC(=O)CNC(=O)[C@H](Cc1ccc(O)cc1)NC(=O)CNC(=O)c1ccc2c(c1)C(=O)OC21c2ccc(O)cc2Oc2cc(O)ccc21)[C@@H](C)O)C(C)C)C(=O)N[C@H](C(=O)N[C@@H](CO)C(=O)N[C@@H](C)C(=O)O)[C@@H](C)CC [BLM pS304, reference compound] (5FAM-GYGDTDFVPP[pS]PEEIISA-OH)
Kd ([1]; read-out: Kd): 3.46 ± 0.54 µM

Compound: CC[C@H](C)[C@H](NC(=O)[C@H](CO)NC(=O)[C@H](CCC(=O)O)NC(=O)[C@H](CC(=O)O)NC(=O)[C@H](CCC(=O)O)NC(=O)CNC(=O)[C@H](Cc1ccc(O)cc1)NC(=O)CNC(=O)c1ccc2c(c1)C(=O)OC21c2ccc(O)cc2Oc2cc(O)ccc21)C(=O)N[C@@H](Cc1ccc(O)cc1)C(=O)N[C@@H](Cc1ccccc1)C(=O)N[C@H](C(=O)N1CCC[C@H]1C(=O)N[C@@H](CCC(=O)O)C(=O)N[C@@H](CC(C)C)C(=O)N[C@@H](Cc1ccc(O)cc1)C(=O)N[C@@H](CC(=O)O)C(=O)N1CCC[C@H]1C(=O)N[C@@H](CCC(=O)O)C(=O)O)[C@@H](C)OP(=O)(O)O [FANCJ pT1133, reference compound] (5FAM-GYGEDESIYF[pT]PELYDPE-OH)
Kd [2]: 140 ± 10 nM

Compound: CC(C)[C@H](NC(=O)CNC(=O)[C@H](Cc1ccc(O)cc1)NC(=O)CNC(=O)c1ccc2c(c1)C(=O)OC21c2ccc(O)cc2Oc2cc(O)ccc21)C(=O)N[C@@H](CCC(=O)O)C(=O)NCC(=O)N[C@@H](CC(=O)O)C(=O)N[C@@H](Cc1c[nH]cn1)C(=O)N[C@@H](CO)C(=O)N[C@@H](COP(=O)(O)O)C(=O)N[C@@H](CC(=O)O)C(=O)N[C@H](C(=O)N[C@@H](CCC(=O)O)C(=O)N[C@@H](CCC(=O)O)C(=O)N[C@@H](CCC(=O)O)C(=O)N[C@H](C(=O)N[C@H](C(=O)N[C@@H](CO)C(=O)O)C(C)C)C(C)C)[C@@H](C)OP(=O)(O)O [Mdb1 pS216, pT218] (5FAM-GYGVEGDHS[pS]D[pT]EEEVVS-OH)
Kd [3]: sub-micromolar affinity
Kd [4]: no binding was observed
Kd [5]: no binding was observed

Compound: CSCC[C@H](NC(=O)[C@@H](NC(=O)CNC(=O)CNC(=O)[C@H](Cc1ccc(O)cc1)NC(=O)CNC(=O)c1ccc2c(c1)C(=O)OC21c2ccc(O)cc2Oc2cc(O)ccc21)C(C)C)C(=O)N[C@H](C(=O)N[C@H](C(=O)N1CCC[C@H]1C(=O)N[C@@H](CC(N)=O)C(=O)N[C@H](C(=O)N1CCC[C@H]1C(=O)N[C@@H](CCC(N)=O)C(=O)N[C@@H](CCCCN)C(=O)N1CCC[C@H]1C(=O)N[C@@H](CC(N)=O)C(=O)N[C@@H](CC(C)C)C(=O)N[C@@H](CCC(N)=O)C(=O)O)[C@@H](C)OP(=O)(O)O)C(C)C)[C@@H](C)O [Mdb1 pT113] (5FAM-GYGGVMTVPN[pT]PQKPNLQ-OH)
Kd [4]: low micromolar affinity
Kd [6]: largely unaffected
Kd [7]: substantially reduced compared to wild-type
Kd [5]: no binding

Further lines, results first:

Kd [8, 11]: sub-micromolar affinity
Kd [8, 12]: < 200 nM
Fold tighter binding than RAD9-pS387 ([8]; RHNO1-pT202 versus RAD9-pS387, binding to TOPBP1 BRCT1): ~ 10 fold
Kd [9, 13]: no binding was observed
Kd [10, 11]: comparable affinity to the wild-type
Kd [10, 12]: < 200 nM
Kd [1, 13]: did not show any measurable binding
Kd ([2]; FP, fluorescein-peptide 200 nM, HEPES pH 7.5, room temperature, one-site fit, ND = low-affinity non-specific response, no binding curve): did not show any measurable binding
Compound: CC[C@H](C)[C@H](NC(=O)CNC(=O)[C@H](Cc1ccc(O)cc1)NC(=O)[C@H](CCCCN)NC(=O)[C@H](CC(=O)O)NC(=O)[C@H](CCC(=O)O)NC(=O)[C@@H]1CCCN1C(=O)[C@@H](NC(=O)[C@H](CC(=O)O)NC(=O)[C@H](CCCCN)NC(=O)[C@@H](NC(=O)[C@H](CC(C)C)NC(=O)[C@@H](NC(=O)[C@@H]1CCCN1C(=O)CNC(=O)CNC(=O)[C@H](Cc1ccc(O)cc1)NC(=O)CN)C(C)C)C(C)C)[C@@H](C)OP(=O)(O)O)C(=O)O [RHNO1 pT202] (H-GYGGPVLVKD[pT]PEDKYGI-OH; N-terminus and C-terminus assumed)

Kd ([8]; read-out: Kd): 940 ± 60 nM
Kd ([9]; read-out: Kd): 1000 ± 60 nM
Compound: CC[C@H](C)[C@H](NC(=O)[C@H](CCC(N)=O)NC(=O)[C@H](CCCCN)NC(=O)[C@H](Cc1c[nH]cn1)NC(=O)[C@@H](NC(=O)[C@@H]1CCCN1C(=O)[C@@H](NC(=O)[C@H](CCC(=O)O)NC(=O)[C@H](C)NC(=O)[C@@H](NC(=O)[C@H](CO)NC(=O)[C@H](CCCCN)NC(=O)[C@@H](NC(=O)[C@H](CC(C)C)NC(=O)CNC(=O)[C@H](Cc1ccc(O)cc1)NC(=O)CNC(=O)c1ccc2c(c1)C(=O)OC21c2ccc(O)cc2Oc2cc(O)ccc21)[C@@H](C)O)C(C)C)[C@@H](C)OP(=O)(O)O)C(C)C)C(=O)N[C@@H](CO)C(=O)O [Treslin pT969] (5FAM-GYGLTKSVAE[pT]PVHKQIS-OH)

Kd ([8]; read-out: Kd): 600 ± 30 nM
Kd ([9]; read-out: Kd): 730 ± 40 nM
Kd ([10]; read-out: Kd): 350 ± 130 nM
Compound: CC[C@H](C)[C@H](NC(=O)[C@H](CCC(=O)O)NC(=O)[C@H](CC(=O)O)NC(=O)CNC(=O)[C@H](CCCCN)NC(=O)[C@H](CCC(=O)O)NC(=O)[C@@H]1CCCN1C(=O)[C@H](COP(=O)(O)O)NC(=O)[C@H](CCC(=O)O)NC(=O)[C@H](CCC(=O)O)NC(=O)[C@@H](NC(=O)[C@@H](NC(=O)CNC(=O)[C@@H](NC(=O)[C@H](CC(=O)O)NC(=O)CNC(=O)[C@H](Cc1ccc(O)cc1)NC(=O)CNC(=O)c1ccc2c(c1)C(=O)OC21c2ccc(O)cc2Oc2cc(O)ccc21)[C@@H](C)CC)C(C)C)C(C)C)C(=O)O [Treslin pT1001] (5FAM-GYGDIGVVEE[pS]PEKGDEI-OH)
